From patent US5716971A, “Pyridine derivatives, their production and use” (Takeda Chemical Industries, Ltd., priority 1993, dated 1998)
Read-outs that look alike come from different tables or passages of the source.

Experiments:
specimen of rat aorta [1] = assay: Vasorelaxation activity in a specimen of rat aorta: contraction caused by TEA and BaCl2; conditions: TEA (30-45 mM) and BaCl2 (0.3 mM) contraction, read-out: constriction inhibitory ratio
Method: Vasorelaxation activity in a specimen of rat aorta Effects on contraction caused by tetraethylammonium chloride (TEA) and barium chloride (BaCl2)
(§1) Male Wister rats (10 to 13 week old were employed for the experiment. After dehematization, the aorta was excised and a ring specimen (5 mm length) was prepared. The specimen was suspended in a bath filled with oxygenated (95% O2 -5%CO2) Krebs solution (36° C.). The ring specimen was fixed at one end and the other end was connected to a transducer (Nippon Koden) for recording tension to determine the tension. After a stabilization period of one hour, TEA (30-45 mM) and BaCl2 (0.3 mM) were added to the bath to cause vasoconstriction. After the constriction had reached a steady state (after about 15 minutes), a test compound was added to the bath and its relaxation activity was measured.

specimen of rat aorta [2] = assay: Vasorelaxation activity in a specimen of rat aorta: contraction caused by KCl; conditions: read-out: constriction inhibitory ratio
Method: as §1
Vasorelaxation activity in a specimen of rat aorta Effects on contraction caused by potassium chloride (KCl)
The same experiment was conducted as in Experiment 1, excepting the use of KCl ([…]) instead of TEA and BaCl2

[3] = tested on: Spontaneously hypertensive rats; assay: Hypotensive activity in rats (Tail Cuff Method), oral; format: in vivo; conditions: Rattus norvegicus, 1 mg/kg, SHR
Method: Hypotensive activity in rats (Tail Cuff Method)
Spontaneously hypertensive rats (SHR, male, 20 to 23 week old) were warmed up to 36° C. The blood pressure at the tail aorta was measured by the tail cuff method. The blood pressure was measured three times, i.e. before oral administration of the test compound, two hours after the administration and five hours after the administration. The test compound was orally administered in the state of a suspension in gum arabic.
Maximal, hypotensive effect against the blood pressure before the administration is shown as % pre. in Table 66. As a result, it is apparent that the compounds of this invention show hypotensive activity.

anesthetized dogs = assay: Action of increasing coronary blood flow in anesthetized dogs (administration into coronary artery); format: in vivo, dog; conditions: injected into coronary artery, anesthetized Beagle dogs
Method: Action of increasing coronary blood flow in anesthetized dogs (Administration into coronary artery) Method: Beagle dogs (10 to 12 kg body weight) were anesthetized with pentobarbital and subjected to thoractomy under artificial respiration. A by-pass fitted with an electromagnetic flowmeter (Nippon Koden) was prepared between the left coronary artery and left carotid artery,and the volume of coronary blood flow was measured. […]
Maximal change rate against the value measured before the administration (% of basal flow) and the duration period [shown in terms of the time (T1/2) in which the activity is reduced to half] are shown in Table 67. As a result, it is apparent that the compounds of this invention show action of increasing coronary blood flow.

[4] = after 2 hours, read-out: Maximal hypotensive effect against blood pressure before administration (% pre.), after 2 hours
[5] = after 5 hours, read-out: Maximal hypotensive effect against blood pressure before administration (% pre.), after 5 hours

| Compound | inhibition at 1 µM (specimen of rat aorta [1]) | inhibition at 1 µM (specimen of rat aorta [2]) | duration (T1/2): time in which the activity is reduced to half (anesthetized dogs; 30 ug/day) | inhibition at 3 µM (specimen of rat aorta [1]) | inhibition at 3 µM (specimen of rat aorta [2]) | further results |
| --- | --- | --- | --- | --- | --- | --- |
| CC(C)(C)O/N=C(/c1cc(Br)c(F)cc1O)c1c(O)ccc[n+]1[O-] [Compound 69, (Z)-2-(5-bromo-4-fluoro-2-hydroxybenzoyl)-3-hydroxypyridine N-oxide O-t-butyloxime] | 100% | 0% | – | – | – | inhibition in vivo at 1 mg/kg [3, 4]: 26%; inhibition in vivo at 1 mg/kg [3, 5]: 19% |
| CC(C)(C)O/N=C(/c1cc(Br)c(C#N)cc1O)c1ncccc1O [Compound 128, (Z)-2-(5-bromo-4-cyano-2-hydroxybenzoyl)-3-hydroxy pyridine O-t-butyloxime] | 100% | – | 6.2 min | – | – | – |
| CC(C)(C)O/N=C(/c1cc(Br)c(F)cc1O)c1c(OC(=O)C(C)(C)C)ccc[n+]1[O-] [Compound 171, (Z)-2-(5-bromo-4-fluoro-2-hydroxybenzoyl)-3-pivaloyloxypyridine N-oxide O-t-butyloxime] | – | – | – | – | – | duration (T1/2): time in which the activity is reduced to half (anesthetized dogs; 10 μg/dog administration): 23.4 min |
| CC(C)(C)O/N=C(/c1cc(Cl)ccc1O)c1c(O)ccc[n+]1[O-] [Compound 123] | – | – | – | 52% | 0% | inhibition at 10 µM (specimen of rat aorta [1]): 91%; inhibition at 10 µM (specimen of rat aorta [2]): 0%; inhibition in vivo at 1 mg/kg [3, 4]: 37%; inhibition in vivo at 1 mg/kg [3, 5]: 12% |
| CC(C)(C)O/N=C(/c1cc(Cl)c(Cl)cc1O)c1c(O)ccc[n+]1[O-] [Compound 122, (Z)-2-(4,5-dichloro-2-hydroxybenzoyl)-3-hydroxypyridine N-oxide O-t-butyloxime] | 100% | 0% | – | – | – | inhibition in vivo at 1 mg/kg [3, 4]: 30%; inhibition in vivo at 1 mg/kg [3, 5]: 24% |
| CC(C)(C)O/N=C(/c1cc(C#N)c(Cl)cc1O)c1ncccc1O [Compound 130, (Z)-2-(4-chloro-5-cyano-2-hydroxybenzoyl)-3-hydroxy pyridine O-t-butyloxime] | 100% | – | 4.4 min | – | – | – |
| CC(C)(C)O/N=C(/c1cc([N+](=O)[O-])ccc1O)c1ncccc1O [Compound 27, (Z)-2-(2-hydroxy-5-nitrobenzoyl)-3-hydroxypyridine O-t-butyloxime] | – | – | 2.1 min | – | – | – |
| COc1cc(O)c(/C(=N/OC(C)(C)C)c2ncccc2O)cc1Br [Compound 43] | – | – | 1.7 min | 63% | 0% | inhibition at 10 µM (specimen of rat aorta [1]): 75%; inhibition at 10 µM (specimen of rat aorta [2]): 5% |
| CC(C)(C)O/N=C(/c1cc(Cl)c(C#N)cc1O)c1ncccc1O [Compound 174, (Z)-2-(5-chloro-4-cyano-2-hydroxybenzoyl)-3-hydroxy pyridine O-t-butyloxime] | 100% | – | – | – | – | duration (T1/2): time in which the activity is reduced to half (anesthetized dogs; 10 μg/dog administration): 4.4 min |
| CC(C)(C)O/N=C(/c1cc(Br)c(Cl)cc1O)c1c(O)ccc[n+]1[O-] [Compound 119, (Z)-2-(5-bromo-4-chloro-2-hydroxybenzoyl)-3-hydroxypyridine N-oxide O-t-butyloxime] | 69% | 5% | – | 71% | 6% | inhibition in vivo at 1 mg/kg [3, 4]: 48%; inhibition in vivo at 1 mg/kg [3, 5]: 29% |
| CC(C)(C)O/N=C(/c1cc(F)c(C#N)cc1O)c1c(O)ccc[n+]1[O-] [Compound 177, (Z)-2-(4-cyano-5-fluoro-2-hydroxybenzoyl)-3-hydroxy pyridine N-oxide O-t-butyloxime] | 50% | 0% | – | 100% | 0% | duration (T1/2): time in which the activity is reduced to half (anesthetized dogs; 10 μg/dog administration): 9.8 min |
| CC(C)(C)ON=C(c1cc(Cl)ccc1O)c1ncccc1O [Compound 14] | 71% | 2% | 1.6 min | 90% | 11% | – |
| CC(C)(C)O/N=C(/c1cc(F)c(Cl)cc1O)c1cccc[n+]1[O-] [Compound 103, (Z)-2-(4-chloro-5-fluoro-2-hydroxybenzoyl)pyridine N-oxide O-t-butyloxime] | – | – | 3.0 min | 29% | – | inhibition at 10 µM (specimen of rat aorta [1]): 47% |
| CC(C)(C)O/N=C(/c1cc(F)c(C#N)cc1O)c1ncccc1O [Compound 176, (Z)-2-(4-cyano-5-fluoro-2-hydroxybenzoyl)-3-hydroxyoyridine O-t-butyloxime] | 100% | – | – | – | – | duration (T1/2): time in which the activity is reduced to half (anesthetized dogs; 10 μg/dog administration): 1.8 min |
| CC(C)(C)O/N=C(/c1cc(Br)ccc1O)c1ncccc1O [Compound 6, (Z)-2-(5-bromo-2-hydroxybenzoyl)-3-hydroxypyridine O-t-butyloxime] | 62% | 5% | 1.5 min | 82% | 17% | – |
| CC(C)(C)O/N=C(/c1cc(F)c(F)cc1O)c1cccc[n+]1[O-] [Compound 100, (Z)-2-(4,5-difluoro-2-hydroxybenzoyl)pyridine N-oxide O-t-butyloxime] | 52% | 4% | 3.3 min | 100% | 11% | – |
| Cc1ccc(O)c(/C(=N/OC(C)(C)C)c2ncccc2O)c1 [Compound 23, (Z)-2-(2-hydroxy-5-methylbenzoyl)-3-hydroxypyridine O-t-butyloxime] | – | – | 1.2 min | – | – | – |
| CC(C)(C)O/N=C(/c1cc(Cl)c(C#N)cc1O)c1c(O)ccc[n+]1[O-] [Compound 175, (Z)-2-(5-chloro-4-cyano-2-hydroxybenzoyl)-3-hydroxy pyridine N-oxide O-t-butyloxime] | 100% | 4% | – | – | – | duration (T1/2): time in which the activity is reduced to half (anesthetized dogs; 10 μg/dog administration): 34.3 min |
| CC(C)(C)O/N=C(/c1cc(C=O)ccc1O)c1ncccc1O [Compound 117] | 10% | 4% | – | 52% | 12% | inhibition at 10 µM (specimen of rat aorta [1]): 99%; inhibition at 10 µM (specimen of rat aorta [2]): 32% |
| CC(C)(C)O/N=C(/c1cc(Cl)ccc1O)c1ncccc1Cl [Compound 147, (Z)-2-(5-chloro-2-hydroxybenzoyl)-3-chloro pyridine O-t-butyloxime] | 100% | 16% | – | – | – | – |
| CC(C)(C)O/N=C(/c1cc(Cl)c(Cl)cc1O)c1cccc[n+]1[O-] [Compound 95, (Z)-2-(4,5-dichloro-2-hydroxybenzoyl)pyridine N-oxide O-t-butyloxime] | 59% | 3% | 4.0 min | 71% | 12% | – |
| CC(C)(C)O/N=C(/c1cc(Br)c(C#N)cc1O)c1c(O)ccc[n+]1[O-] [Compound 129, (Z)-2-(5-bromo-4-cyano-2-hydroxybenzoyl)-3-hydroxy pyridine N-oxide O-t-butyloxime] | 100% | 18% | – | – | – | duration (T1/2): time in which the activity is reduced to half (anesthetized dogs; 10 μg/dog administration): 42.9 min |
| CC(C)(C)O/N=C(/c1cc(Br)ccc1O)c1cccc[n+]1[O-] [Compound 89, (Z)-2-(5-bromo-2-hydroxybenzoyl)pyridine N-oxide O-t-butyloxime] | – | – | – | 55% | 11% | inhibition at 10 µM (specimen of rat aorta [1]): 85%; inhibition at 10 µM (specimen of rat aorta [2]): 32% |
| CC(C)(C)O/N=C(/c1cc(C#N)c(Cl)cc1O)c1c(O)ccc[n+]1[O-] [Compound 132, (Z)-2-(4-chloro-5-cyano-2-hydroxybenzoyl)-3-hydroxy pyridine N-oxide O-t-butyloxime] | 100% | – | 71.8 min | – | – | – |
| CC(C)O/N=C(/c1cc(Br)ccc1O)c1ncccc1O [Compound 19, (Z)-2-(5-bromo-2-hydroxybenzoyl)-3-hydroxypyridine O-i-propyloxime] | 58% | -5% | – | 95% | 6% | – |
| CCOc1cc(O)c(/C(=N/OC(C)(C)C)c2ncccc2O)cc1Cl [Compound 160] | 100% | 18% | – | – | – | – |
